# Reference: patent US12083124B2 (Incyte Corporation, priority 2019, dated 2024)
# Where two headings read alike, the source gives them in different places.
# How the values were obtained:
# [1] = molecular target: wild-type un-phosphorylated FGFR1 (Homo sapiens, UniProt P11362); experiment: FGFR Enzymatic Assay (FRET peptide phosphorylation), FGFR1; settings: pre-incubated for 4 hours
# [2] = molecular target: wild-type un-phosphorylated FGFR4 (Homo sapiens, UniProt P22455); experiment: FGFR Enzymatic Assay (FRET peptide phosphorylation), FGFR4
# wild-type un-phosphorylated FGFR4, sequence (P22455 22-802): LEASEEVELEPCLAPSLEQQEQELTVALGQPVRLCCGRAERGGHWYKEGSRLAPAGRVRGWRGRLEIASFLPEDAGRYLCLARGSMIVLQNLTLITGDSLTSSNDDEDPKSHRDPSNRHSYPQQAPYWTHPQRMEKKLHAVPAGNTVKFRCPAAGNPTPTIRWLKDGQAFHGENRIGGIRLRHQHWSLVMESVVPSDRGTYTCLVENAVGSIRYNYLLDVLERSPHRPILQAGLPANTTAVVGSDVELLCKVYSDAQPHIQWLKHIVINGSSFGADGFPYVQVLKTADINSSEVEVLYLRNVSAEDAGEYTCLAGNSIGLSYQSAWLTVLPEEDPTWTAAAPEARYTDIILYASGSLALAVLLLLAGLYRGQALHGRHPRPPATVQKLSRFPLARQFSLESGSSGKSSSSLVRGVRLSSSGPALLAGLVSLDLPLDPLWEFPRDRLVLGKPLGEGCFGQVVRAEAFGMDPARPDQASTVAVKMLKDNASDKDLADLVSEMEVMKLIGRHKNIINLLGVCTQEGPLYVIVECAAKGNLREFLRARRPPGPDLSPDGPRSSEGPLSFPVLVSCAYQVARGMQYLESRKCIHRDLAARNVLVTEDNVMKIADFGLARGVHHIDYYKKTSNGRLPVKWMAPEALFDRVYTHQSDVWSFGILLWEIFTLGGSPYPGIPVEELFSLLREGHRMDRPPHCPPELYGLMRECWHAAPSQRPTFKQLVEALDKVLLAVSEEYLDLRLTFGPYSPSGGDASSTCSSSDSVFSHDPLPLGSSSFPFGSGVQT
# [3] = molecular target: wild-type un-phosphorylated FGFR2 (Homo sapiens, UniProt P21802); experiment: FGFR Enzymatic Assay (FRET peptide phosphorylation), FGFR2
# wild-type un-phosphorylated FGFR2, sequence (P21802 22-821): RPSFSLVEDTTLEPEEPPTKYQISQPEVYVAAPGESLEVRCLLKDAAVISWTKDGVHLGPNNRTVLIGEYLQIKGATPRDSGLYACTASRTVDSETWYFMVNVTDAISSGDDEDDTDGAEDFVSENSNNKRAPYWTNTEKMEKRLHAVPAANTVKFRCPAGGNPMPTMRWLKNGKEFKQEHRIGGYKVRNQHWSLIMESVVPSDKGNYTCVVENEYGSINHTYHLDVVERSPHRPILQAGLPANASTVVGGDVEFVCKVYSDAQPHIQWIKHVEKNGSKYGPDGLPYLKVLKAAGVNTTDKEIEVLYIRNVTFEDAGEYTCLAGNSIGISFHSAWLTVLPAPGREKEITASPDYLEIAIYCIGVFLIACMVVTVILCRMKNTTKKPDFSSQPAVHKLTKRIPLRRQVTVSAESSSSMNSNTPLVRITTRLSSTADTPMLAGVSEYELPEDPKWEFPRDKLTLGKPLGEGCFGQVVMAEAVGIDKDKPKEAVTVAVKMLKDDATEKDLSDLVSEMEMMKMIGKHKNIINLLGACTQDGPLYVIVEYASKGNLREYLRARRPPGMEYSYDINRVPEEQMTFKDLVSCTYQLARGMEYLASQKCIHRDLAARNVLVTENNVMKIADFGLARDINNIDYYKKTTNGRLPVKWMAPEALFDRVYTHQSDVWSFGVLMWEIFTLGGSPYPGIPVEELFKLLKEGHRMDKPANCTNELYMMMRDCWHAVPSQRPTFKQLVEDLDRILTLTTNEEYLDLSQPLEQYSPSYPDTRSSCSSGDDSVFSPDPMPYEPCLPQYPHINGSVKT
# [4] = molecular target: wild-type un-phosphorylated FGFR3 (Homo sapiens, UniProt P22607); experiment: FGFR Enzymatic Assay (FRET peptide phosphorylation), FGFR3
# wild-type un-phosphorylated FGFR3, sequence (P22607 23-806): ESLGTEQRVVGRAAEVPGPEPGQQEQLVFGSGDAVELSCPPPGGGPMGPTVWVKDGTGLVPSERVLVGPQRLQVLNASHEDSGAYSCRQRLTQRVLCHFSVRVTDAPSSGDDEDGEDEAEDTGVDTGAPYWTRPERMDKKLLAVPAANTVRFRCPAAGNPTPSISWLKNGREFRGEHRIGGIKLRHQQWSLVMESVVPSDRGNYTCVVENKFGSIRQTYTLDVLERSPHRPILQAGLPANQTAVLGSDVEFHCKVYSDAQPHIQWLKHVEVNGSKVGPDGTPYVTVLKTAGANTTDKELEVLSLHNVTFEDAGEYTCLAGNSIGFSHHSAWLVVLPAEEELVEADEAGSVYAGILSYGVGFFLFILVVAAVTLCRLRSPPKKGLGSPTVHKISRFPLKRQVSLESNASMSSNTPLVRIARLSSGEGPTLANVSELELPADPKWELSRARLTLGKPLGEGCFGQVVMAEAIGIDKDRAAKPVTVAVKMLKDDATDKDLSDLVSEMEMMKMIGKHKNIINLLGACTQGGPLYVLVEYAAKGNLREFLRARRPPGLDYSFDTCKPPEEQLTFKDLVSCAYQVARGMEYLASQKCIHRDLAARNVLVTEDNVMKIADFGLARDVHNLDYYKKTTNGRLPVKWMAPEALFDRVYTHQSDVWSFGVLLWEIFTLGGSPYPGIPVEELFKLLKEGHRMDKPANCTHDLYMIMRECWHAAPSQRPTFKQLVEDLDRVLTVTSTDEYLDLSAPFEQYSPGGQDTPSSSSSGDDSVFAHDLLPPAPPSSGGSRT
# [5] = FGFR1, wild-type un-phosphorylated FGFR1
# [6] = read-out: FGFR2, wild-type un-phosphorylated FGFR2, pre-incubated for 4 hours
# [7] = read-out: FGFR1, wild-type un-phosphorylated FGFR1
# [8] = read-out: FGFR4, wild-type un-phosphorylated FGFR4, pre-incubated for 4 hours
# wild-type un-phosphorylated FGFR1, sequence (P11362 22-822): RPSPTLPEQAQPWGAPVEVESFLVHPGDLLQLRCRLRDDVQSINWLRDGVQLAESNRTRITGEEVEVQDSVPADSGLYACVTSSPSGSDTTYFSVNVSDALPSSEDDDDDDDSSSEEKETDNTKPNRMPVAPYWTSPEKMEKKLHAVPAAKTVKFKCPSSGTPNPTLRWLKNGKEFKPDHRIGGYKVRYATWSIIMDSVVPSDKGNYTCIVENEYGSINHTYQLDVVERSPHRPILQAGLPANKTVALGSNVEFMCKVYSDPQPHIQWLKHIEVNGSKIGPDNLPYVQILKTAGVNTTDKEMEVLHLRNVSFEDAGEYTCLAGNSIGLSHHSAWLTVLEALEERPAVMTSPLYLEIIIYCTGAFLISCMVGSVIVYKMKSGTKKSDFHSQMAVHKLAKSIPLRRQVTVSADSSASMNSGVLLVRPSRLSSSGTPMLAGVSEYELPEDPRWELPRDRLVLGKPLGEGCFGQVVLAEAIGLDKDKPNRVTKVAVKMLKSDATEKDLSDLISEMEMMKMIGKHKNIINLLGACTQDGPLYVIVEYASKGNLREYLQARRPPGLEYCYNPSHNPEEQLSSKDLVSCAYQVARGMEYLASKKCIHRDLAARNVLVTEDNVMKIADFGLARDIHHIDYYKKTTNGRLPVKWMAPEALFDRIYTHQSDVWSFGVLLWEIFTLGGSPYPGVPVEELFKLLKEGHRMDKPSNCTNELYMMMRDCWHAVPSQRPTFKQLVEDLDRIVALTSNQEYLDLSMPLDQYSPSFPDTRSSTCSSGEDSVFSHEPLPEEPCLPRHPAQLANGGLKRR
SMILES,"IC50 [1, 5]",IC50 [2],IC50 [3],IC50 [4],"IC50 [3, 6]","IC50 [1, 7]","IC50 [2, 8]"
"Cc1cccc(-c2nc3c(-c4cnn(C)c4)n[nH]c3cc2CO)c1C [Example 38, (5-(2,3-Dimethylphenyl)-3-(1-methyl-1H-pyrazol-4-yl)-1H-pyrazolo[4,3-b]pyridin-6-yl)methanol]",> 0.1 µM,> 0.1 µM,–,< 0.006 µM,0.006 to 0.04 µM,–,–
"COc1cc2[nH]nc(-c3ccc(N4CCN(C)CC4)nc3)c2nc1-c1cccc(C)c1C [Example 41, 5-(2,3-Dimethylphenyl)-6-methoxy-3-(6-(4-methylpiperazin-1-yl)pyridin-3-yl)-1H-pyrazolo[4,3-b]pyridine]",0.04 to 0.1 µM,0.04 to 0.1 µM,< 0.006 µM,< 0.006 µM,–,–,–
"CCN1CCN(c2ccc(-c3n[nH]c4cc(OC)c(-c5cccc(C)c5C)nc34)cn2)CC1 [Example 42, 5-(2,3-Dimethylphenyl)-3-(6-(4-ethylpiperazin-1-yl)pyridin-3-yl)-6-methoxy-1H-pyrazolo[4,3-b]pyridine]",0.04 to 0.1 µM,> 0.1 µM,< 0.006 µM,< 0.006 µM,–,–,–
"COc1cc2[nH]nc(-c3cnn(C4CN(C(=O)N(C)C)C4)c3)c2nc1-c1cccc(C)c1F [Example 52, 3-(4-(5-(2-Fluoro-3-methylphenyl)-6-methoxy-1H-pyrazolo[4,3-b]pyridin-3-yl)-1H-pyrazol-1-yl)-N,N-dimethylazetidine-1-carboxamide]",> 0.1 µM,> 0.1 µM,–,< 0.006 µM,0.006 to 0.04 µM,–,–
"COc1cc2[nH]nc(-c3ccc(N4CCOCC4)nc3)c2nc1-c1cccc2c1CCC2 [Example 58, 4-(5-(5-(2,3-Dihydro-1H-inden-4-yl)-6-methoxy-1H-pyrazolo[4,3-b]pyridin-3-yl)pyridin-2-yl)morpholine]",0.04 to 0.1 µM,0.04 to 0.1 µM,< 0.006 µM,< 0.006 µM,–,–,–
"COc1cc2[nH]nc(-c3ccc(N4CCN(C(C)C)CC4)cc3)c2nc1-c1cccc2c1CCC2 [Example 62, 5-(2,3-Dihydro-1H-inden-4-yl)-3-(4-(4-isopropylpiperazin-1-yl)phenyl)-6-methoxy-1H-pyrazolo[4,3-b]pyridine]",–,> 0.1 µM,< 0.006 µM,< 0.006 µM,–,0.006 to 0.04 µM,–
"CCN1CCN(c2ccc(-c3n[nH]c4cc(OC)c(-c5cccc6c5CCC6)nc34)cc2)CC1 [Example 63, 5-(2,3-Dihydro-1H-inden-4-yl)-3-(4-(4-ethylpiperazin-1-yl)phenyl)-6-methoxy-1H-pyrazolo[4,3-b]pyridine]",–,0.04 to 0.1 µM,< 0.006 µM,< 0.006 µM,–,0.006 to 0.04 µM,–
"COc1cc2[nH]nc(-c3ccc(C4CCN(C(=O)[C@H](C)O)CC4)nc3)c2nc1-c1cccc(C)c1C [Example 77, (S)-1-(4-(5-(5-(2,3-Dimethylphenyl)-6-methoxy-1H-pyrazolo[4,3-b]pyridin-3-yl)pyridin-2-yl)piperidin-1-yl)-2-hydroxypropan-1-one]",> 0.1 µM,> 0.1 µM,< 0.006 µM,< 0.006 µM,–,–,–
"COc1cc2[nH]nc(-c3cnn(C)c3)c2nc1-c1cccc2c1CC(F)C2 (centres unmarked) [Example 84, 5-(2-Fluoro-2,3-dihydro-1H-inden-4-yl)-6-methoxy-3-(1-methyl-1H-pyrazol-4-yl)-1H-pyrazolo[4,3-b]pyridine]",0.04 to 0.1 µM,> 0.1 µM,< 0.006 µM,< 0.006 µM,–,–,–
"COc1cc2[nH]nc(-c3ccc(N4CCN5C[C@@H](O)C[C@@H]5C4)nc3)c2nc1-c1cccc(C)c1C [Example 85, (7S,8aR)-2-(5-(5-(2,3-Dimethylphenyl)-6-methoxy-1H-pyrazolo[4,3-b]pyridin-3-yl)pyridin-2-yl)octahydropyrrolo[1,2-a]pyrazin-7-ol]",0.04 to 0.1 µM,0.04 to 0.1 µM,< 0.006 µM,< 0.006 µM,–,–,–
"COCCOc1ccc(-c2n[nH]c3cc(OC)c(-c4cccc5c4CC(O)C5)nc23)cn1 (centres unmarked) [Example 95, 4-(6-Methoxy-3-(6-(2-methoxyethoxy)pyridin-3-yl)-1H-pyrazolo[4,3-b]pyridin-5-yl)-2,3-dihydro-1H-inden-2-ol]",0.04 to 0.1 µM,> 0.1 µM,–,< 0.006 µM,0.006 to 0.04 µM,–,–
"COc1cc2[nH]nc(-c3ccc(OC4CCOCC4)nc3)c2nc1-c1cccc2c1CC(O)C2 (centres unmarked) [Example 96, 4-(6-Methoxy-3-(6-((tetrahydro-2H-pyran-4-yl)oxy)pyridin-3-yl)-1H-pyrazolo[4,3-b]pyridin-5-yl)-2,3-dihydro-1H-inden-2-ol]",0.04 to 0.1 µM,> 0.1 µM,–,< 0.006 µM,0.006 to 0.04 µM,–,–

# Continued, values first:
"IC50 [1, 5]",IC50 [2],IC50 [3],IC50 [4],"IC50 [3, 6]","IC50 [1, 7]","IC50 [2, 8]",SMILES
0.04 to 0.1 µM,> 0.1 µM,< 0.006 µM,< 0.006 µM,–,–,–,"CNc1cc2[nH]nc(-c3cnn(C)c3)c2nc1-c1cccc(C)c1C [Example 34, 5-(2,3-Dimethylphenyl)-N-methyl-3-(1-methyl-1H-pyrazol-4-yl)-1H-pyrazolo[4,3-b]pyridin-6-amine]"
0.04 to 0.1 µM,> 0.1 µM,–,< 0.006 µM,0.006 to 0.04 µM,–,–,"Cn1cc(-c2n[nH]c3cc(CO)c(-c4cccc5c4CCC5)nc23)cn1 [Example 36, (5-(2,3-Dihydro-1H-inden-4-yl)-3-(1-methyl-1H-pyrazol-4-yl)-1H-pyrazolo[4,3-b]pyridin-6-yl)methanol]"
> 0.1 µM,> 0.1 µM,–,< 0.006 µM,0.006 to 0.04 µM,–,–,"Cc1cc2[nH]nc(-c3cnn(C)c3)c2nc1-c1cccc(C)c1C [Example 40, 5-(2,3-Dimethylphenyl)-6-methyl-3-(1-methyl-1H-pyrazol-4-yl)-1H-pyrazolo[4,3-b]pyridine]"
> 0.1 µM,> 0.1 µM,–,< 0.006 µM,0.006 to 0.04 µM,–,–,"COc1cc2[nH]nc(-c3ccc(N4CCOCC4)nc3)c2nc1-c1cccc(C)c1C [Example 44, 4-(5-(5-(2,3-Dimethylphenyl)-6-methoxy-1H-pyrazolo[4,3-b]pyridin-3-yl)pyridin-2-yl)morpholine]"
> 0.1 µM,> 0.1 µM,–,< 0.006 µM,0.006 to 0.04 µM,–,–,"COc1cc2[nH]nc(-c3ccc(N4CCOCC4)nc3)c2nc1-c1cccc(CC#N)c1C [Example 56, 2-(3-(6-Methoxy-3-(6-morpholinopyridin-3-yl)-1H-pyrazolo[4,3-b]pyridin-5-yl)-2-methylphenyl)acetonitrile]"
> 0.1 µM,> 0.1 µM,< 0.006 µM,< 0.006 µM,–,–,–,"COc1cc2[nH]nc(-c3ccc(N4CCCC4)nc3)c2nc1-c1cccc2c1CCC2 [Example 57, 5-(2,3-Dihydro-1H-inden-4-yl)-6-methoxy-3-(6-(pyrrolidin-1-yl)pyridin-3-yl)-1H-pyrazolo[4,3-b]pyridine]"
–,–,< 0.006 µM,< 0.006 µM,–,0.006 to 0.04 µM,0.006 to 0.04 µM,"CCNC(=O)N1CCN(c2ccc(-c3n[nH]c4cc(OC)c(-c5cccc6c5CCC6)nc34)cn2)CC1 [Example 59, 4-(5-(5-(2,3-Dihydro-1H-inden-4-yl)-6-methoxy-1H-pyrazolo[4,3-b]pyridin-3-yl)pyridin-2-yl)-N-ethylpiperazine-1-carboxamide]"
–,–,< 0.006 µM,< 0.006 µM,–,0.006 to 0.04 µM,0.006 to 0.04 µM,"COc1cc2[nH]nc(-c3ccc(N4CCN(C(N)=O)CC4)nc3)c2nc1-c1cccc2c1CCC2 [Example 60, 4-(5-(5-(2,3-Dihydro-1H-inden-4-yl)-6-methoxy-1H-pyrazolo[4,3-b]pyridin-3-yl)pyridin-2-yl)piperazine-1-carboxamide]"
0.04 to 0.1 µM,> 0.1 µM,< 0.006 µM,< 0.006 µM,–,–,–,"COc1cc2[nH]nc(-c3ccc(N4CCN(C(C)=O)CC4)cc3)c2nc1-c1cccc2c1CCC2 [Example 61, 1-(4-(4-(5-(2,3-Dihydro-1H-inden-4-yl)-6-methoxy-1H-pyrazolo[4,3-b]pyridin-3-yl)phenyl)piperazin-1-yl)ethan-1-one]"
> 0.1 µM,> 0.1 µM,< 0.006 µM,< 0.006 µM,–,–,–,"COc1cc2[nH]nc(-c3cnn(Cc4ccccn4)c3)c2nc1-c1cccc(C)c1C [Example 66, 5-(2,3-Dimethylphenyl)-6-methoxy-3-(1-(pyridin-2-ylmethyl)-1H-pyrazol-4-yl)-1H-pyrazolo[4,3-b]pyridine]"
0.04 to 0.1 µM,0.04 to 0.1 µM,< 0.006 µM,< 0.006 µM,–,–,–,"COc1cc2[nH]nc(-c3cnn(C4CN(C(=O)N(C)C)C4)c3)c2nc1-c1cccc(C)c1C [Example 72, 3-(4-(5-(2,3-Dimethylphenyl)-6-methoxy-1H-pyrazolo[4,3-b]pyridin-3-yl)-1H-pyrazol-1-yl)-N,N-dimethylazetidine-1-carboxamide]"
> 0.1 µM,> 0.1 µM,< 0.006 µM,< 0.006 µM,–,–,–,"COc1cc2[nH]nc(-c3ccc(C4CCN(C(=O)CO)CC4)nc3)c2nc1-c1cccc(C)c1C [Example 78, 1-(4-(5-(5-(2,3-Dimethylphenyl)-6-methoxy-1H-pyrazolo[4,3-b]pyridin-3-yl)pyridin-2-yl)piperidin-1-yl)-2-hydroxyethan-1-one]"
0.04 to 0.1 µM,0.04 to 0.1 µM,< 0.006 µM,< 0.006 µM,–,–,–,"COc1cc2[nH]nc(-c3ccc(N4CCN5C[C@H](O)C[C@H]5C4)nc3)c2nc1-c1cccc(C)c1C [Example 87, (7R,8aS)-2-(5-(5-(2,3-Dimethylphenyl)-6-methoxy-1H-pyrazolo[4,3-b]pyridin-3-yl)pyridin-2-yl)octahydropyrrolo[1,2-a]pyrazin-7-ol]"
0.04 to 0.1 µM,> 0.1 µM,–,< 0.006 µM,0.006 to 0.04 µM,–,–,"COc1cc2[nH]nc(-c3ccc(C4CC4)nc3)c2nc1-c1cccc2c1CC(O)C2 (centres unmarked) [Example 97, 4-(3-(6-Cyclopropylpyridin-3-yl)-6-methoxy-1H-pyrazolo[4,3-b]pyridin-5-yl)-2,3-dihydro-1H-inden-2-ol]"
